Among the test systems are UACC-257; MDA-MB-231; SK-MEL-5; SK-MEL-28; SK-MEL-2; HCT-116; SF-539; NCI-H460; SNB-19; EKVX; RXF 393; MCF7; MDA-N; ACHN; CCRF-CEM; HT-29; SR; A549; SF-268; HOP-62.
Common to all, as to assay: NCI-60 cell line screen, 48 h

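Exposure lasted 48 hours, with cells grown in 96-well plates and compounds tested at five concentrations. The concentration for 50% growth inhibition is given as GI50.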 Active and inactive are the calls of the source. No stated cut-off is given here; in the data, active = GI50 up to about 1.1 µM and inactive = higher. A value given as a limit tells only on which side of the number the result lay.

Regarding `CC(=O)c1cnc2oc3ccc(O)cc3c2c1-c1ccccc1`, the GI50 is 65.2 µM (inactive) in the assay with UACC-257; 25.2 µM (inactive) in the assay on MDA-MB-231; 22.2 µM (inactive) in the assay with SK-MEL-5; 17.5 µM (inactive) with SK-MEL-28; 22.6 µM (inactive) in the assay on SK-MEL-2; 57.1 µM (inactive) in the assay with HCT-116. Further, the GI50 was 15 µM (inactive) in the assay with SF-539; 33.5 µM (inactive) in the assay with NCI-H460; 37.3 µM (inactive) in the assay on SNB-19; 23.9 µM (inactive) in the assay with EKVX; 25.3 µM (inactive) in the assay on RXF 393; 48.2 µM (inactive) with MCF7. Also, the GI50 with MDA-N is 40.1 µM (inactive); in the assay on ACHN, 21.1 µM (inactive); with CCRF-CEM, 45 µM (inactive); with HT-29 it was 95.5 µM (inactive); in the assay on SR, 33.3 µM (inactive); with A549, 47.1 µM (inactive).
As for `CCOC(=O)/C=C(/C(=O)OCC)n1cc(C)c(=O)n(Cc2cn(COCCOC(C)=O)nn2)c1=O`, the GI50 was 19.5 µM (inactive) in the assay on SF-268; 20.7 µM (inactive) with UACC-257; 28.4 µM (inactive) in the assay on MDA-MB-231; > 100 µM (inactive) in the assay on HOP-62; 24.9 µM (inactive) in the assay with SK-MEL-5; 19.8 µM (inactive) in the assay on SK-MEL-28. For the same compound, the GI50 is 45.8 µM (inactive) with SK-MEL-2; 20.7 µM (inactive) in the assay on HCT-116; 15.9 µM (inactive) in the assay on SF-539; > 40.6 µM (inactive) in the assay on NCI-H460; > 52.6 µM (inactive) with SNB-19; 16.7 µM (inactive) with EKVX. In addition, the GI50 with RXF 393 was 23.7 µM (inactive); with MCF7, 16.5 µM (inactive); in the assay on MDA-N, 38.3 µM (inactive); with ACHN, 7.06 µM (inactive); in the assay with CCRF-CEM it was 0.984 µM (active); in the assay on HT-29, 16.1 µM (inactive). In addition, the GI50 was 20.9 µM (inactive) in the assay with SR and > 100 µM (inactive) in the assay on A549.
`COc1ccc(N(C)S(=O)(=O)c2ccccc2)cc1`: the GI50 in the assay with SF-268 was > 100 µM (inactive); in the assay with UACC-257, > 100 µM (inactive); with MDA-MB-231, > 100 µM (inactive); in the assay on HOP-62, > 100 µM (inactive); in the assay with SK-MEL-5, 61.8 µM (inactive); in the assay with SK-MEL-28, > 100 µM (inactive). Also, the GI50 in the assay with SK-MEL-2 is > 100 µM (inactive); in the assay with HCT-116, > 100 µM (inactive); in the assay with SF-539, > 100 µM (inactive); in the assay with NCI-H460, 94.8 µM (inactive); in the assay on SNB-19 it was > 100 µM (inactive); in the assay on EKVX, > 100 µM (inactive). The GI50 in the assay with RXF 393, with MCF7, with MDA-N, with ACHN, in the assay with CCRF-CEM and in the assay on HT-29 was > 100 µM (inactive) throughout. In addition, the GI50 in the assay on SR was 87.9 µM (inactive); in the assay on A549, > 100 µM (inactive).
As to `Cc1cc(=O)[nH]c2c1C(=O)c1c(C)cc(=O)n(C)c1C2=O`, the GI50 with SF-268 was 0.129 µM (active); in the assay with UACC-257 it was 0.0152 µM (active); with MDA-MB-231 it was 0.303 µM (active); in the assay with HOP-62, 0.0514 µM (active); in the assay on SK-MEL-5, 0.0151 µM (active); in the assay with SK-MEL-28, 0.0191 µM (active). Also, the GI50 with SK-MEL-2 was 0.0208 µM (active); with HCT-116, 0.1 µM (active); with SF-539 it was 0.0208 µM (active); in the assay with NCI-H460, 0.187 µM (active); in the assay with SNB-19, 0.0185 µM (active); in the assay on EKVX it was 0.205 µM (active). Also, the GI50 in the assay with RXF 393 was 0.138 µM (active); in the assay on MCF7, 0.0168 µM (active); in the assay with MDA-N, 0.0184 µM (active); with ACHN, 0.0995 µM (active); with CCRF-CEM it was 0.321 µM (active); in the assay with HT-29, 0.043 µM (active). Besides, the GI50 in the assay on SR was 0.125 µM (active); in the assay with A549, 0.188 µM (active).
In the case of `Cc1cc(C)nc(NC(=S)Nc2ccc(Cl)cc2)c1`, the GI50 in the assay with SF-268 was 21.3 µM (inactive); with UACC-257, > 100 µM (inactive); in the assay on MDA-MB-231, 74.8 µM (inactive); in the assay on HOP-62, 35.9 µM (inactive); in the assay with SK-MEL-5, > 100 µM (inactive); in the assay with SK-MEL-28, > 100 µM (inactive). Moreover, the GI50 in the assay on SK-MEL-2 is > 100 µM (inactive); in the assay on HCT-116, > 100 µM (inactive); in the assay with SF-539, 53.2 µM (inactive); in the assay with NCI-H460, 66.7 µM (inactive); with SNB-19 it was > 100 µM (inactive); with EKVX, 17.4 µM (inactive). Also, the GI50 was 36.1 µM (inactive) with RXF 393; > 100 µM (inactive) with MCF7; > 100 µM (inactive) in the assay with MDA-N; > 100 µM (inactive) in the assay on CCRF-CEM; > 100 µM (inactive) in the assay on HT-29; > 100 µM (inactive) with SR. Besides, the GI50 in the assay on A549 is > 100 µM (inactive).
For `C=CCCCC1SC2=C(CC)CCCN2C1=O` (centres undefined), the GI50 in the assay on SF-268 is 74.6 µM (inactive); in the assay with UACC-257, 27.6 µM (inactive); in the assay with MDA-MB-231, 92 µM (inactive); in the assay on HOP-62, > 100 µM (inactive); in the assay with SK-MEL-5, 36.1 µM (inactive); in the assay on SK-MEL-28, 76.6 µM (inactive). Further, the GI50 in the assay with SK-MEL-2 was > 100 µM (inactive); with HCT-116 it was 53.8 µM (inactive); with SF-539 it was > 100 µM (inactive); in the assay with SNB-19, 73.5 µM (inactive); with EKVX, 78.7 µM (inactive); with RXF 393 it was 40.5 µM (inactive). Moreover, the GI50 in the assay with MCF7 was 42.7 µM (inactive); in the assay on MDA-N it was 70.1 µM (inactive); in the assay with ACHN, 89.1 µM (inactive); in the assay on HT-29 it was 58.3 µM (inactive); in the assay with SR, 57.7 µM (inactive); in the assay with A549, 41.6 µM (inactive).
With `CCOC(=O)c1c(N)n(-c2ccccc2)c(=S)n(-c2ccccc2)c1=O`, the GI50 in the assay on SF-268, with UACC-257, with MDA-MB-231, with SK-MEL-5, with SK-MEL-28 and with SK-MEL-2 was > 100 µM (inactive) each time. In addition, the GI50 in the assay on NCI-H460, with SNB-19, in the assay with RXF 393, in the assay on MCF7, with MDA-N and in the assay on ACHN was > 100 µM (inactive) throughout. In addition, the GI50 in the assay with CCRF-CEM, with HT-29, in the assay on SR and with A549 was > 100 µM (inactive) throughout.
Consider `CCOC(=O)/C=C(\C(=O)OCC)n1ccc(=O)n(CC(=O)OCC)c1=O`, for which the GI50 is 13.2 µM (inactive) in the assay with SF-268; 11.6 µM (inactive) in the assay with UACC-257; 6.12 µM (inactive) in the assay with MDA-MB-231; 20.7 µM (inactive) in the assay with HOP-62; 13 µM (inactive) in the assay with SK-MEL-5; 6.25 µM (inactive) with SK-MEL-28. The GI50 in the assay on SK-MEL-2 was 14 µM (inactive); in the assay with HCT-116, 1.77 µM (inactive); in the assay on SF-539 it was 16.6 µM (inactive); with NCI-H460, 15.6 µM (inactive); in the assay on SNB-19 it was 19.3 µM (inactive); in the assay with EKVX it was 6.59 µM (inactive). Moreover, the GI50 in the assay with RXF 393 was 1.26 µM (inactive); in the assay with MCF7 it was 3.16 µM (inactive); with MDA-N it was 5.96 µM (inactive); in the assay with ACHN, 1.64 µM (inactive); with CCRF-CEM it was 0.592 µM (active); in the assay with HT-29 it was 5.9 µM (inactive). Further, the GI50 is 2.17 µM (inactive) with SR and 17.2 µM (inactive) with A549.
Regarding `CC(CC(=O)N1C2CC3CCC2(CS1(=O)=O)C3(C)C)[Si](C)(C)C` (centres undefined), the GI50 in the assay with SF-268, in the assay with UACC-257, in the assay on MDA-MB-231, with HOP-62, in the assay on SK-MEL-5 and in the assay on SK-MEL-28 was > 100 µM (inactive) in each case. Besides, the GI50 with HCT-116, with SF-539, in the assay on NCI-H460, with SNB-19, with EKVX and in the assay on RXF 393 was > 100 µM (inactive) each time. Also, the GI50 in the assay with MCF7, in the assay on MDA-N, in the assay with ACHN, with CCRF-CEM, in the assay on HT-29 and in the assay with SR was > 100 µM (inactive) each time. In the assay on A549, the GI50 is > 100 µM (inactive).
Take `O=C1CCCCC(=O)OC2(CCCCC2=O)CC1` (centres undefined): the GI50 with SF-268, in the assay on UACC-257, with MDA-MB-231, with HOP-62, in the assay on SK-MEL-5 and with SK-MEL-28 was > 100 µM (inactive) throughout. The GI50 with SK-MEL-2, in the assay on HCT-116, in the assay with SF-539, in the assay on NCI-H460, in the assay on RXF 393 and in the assay on MCF7 was > 100 µM (inactive) in each case. Moreover, the GI50 in the assay on MDA-N, in the assay on ACHN, with CCRF-CEM, in the assay with HT-29, in the assay with SR and with A549 was > 100 µM (inactive) each time.
For `O=C1Nc2ccc(Br)cc2/C1=N/NC(=S)Nc1ccc(F)cc1`, the GI50 was 4.31 µM (inactive) in the assay on SF-268; 9.77 µM (inactive) in the assay with UACC-257; 12.6 µM (inactive) in the assay with MDA-MB-231; 8.07 µM (inactive) in the assay on HOP-62; 3.67 µM (inactive) in the assay on SK-MEL-5; 3.94 µM (inactive) in the assay on SK-MEL-28. In addition, the GI50 with SK-MEL-2 is 10.9 µM (inactive); with HCT-116, 3.87 µM (inactive); with SF-539, 9.91 µM (inactive); with NCI-H460 it was 1.59 µM (inactive); in the assay on RXF 393 it was 1.76 µM (inactive); with MCF7, 3.43 µM (inactive). Also, the GI50 was 2.98 µM (inactive) in the assay on MDA-N, 3.43 µM (inactive) with ACHN, 5.38 µM (inactive) in the assay on HT-29 and 1.71 µM (inactive) in the assay on SR.
